Data set [1] relates to Trypanosoma brucei rhodesiense. The experiment in a line: Antitrypanosomal activity against Trypanosoma brucei rhodesiense STIB900 assessed as parasite growth inhibition after 70 hrs by Alamar blue assay. The conditions noted are these: STIB900, 70 h. The class given is functional, organism-based.
A further data set deals with L6. The experiment in a line: Cytotoxicity against rat L6 cells assessed as cell viability after 70 hrs by MTT assay. To be noted: L6, 70 h. The class given is cell-based. Background: Formazan colour is commonly taken as a measure of viable cells.
Another data set has as its system Mus musculus. Nature of the data set: Toxicity in mouse infected with Trypanosoma brucei rhodesiense at 50 mg/kg, ip measured after day 3. The conditions noted are these: in vivo. Type of data set: organism-based. Also on record: dose 50 mg/kg, route intraperitoneal.
Data set [2] deals with Trypanosoma brucei rhodesiense. Nature of the data set: Antitrypanosomal activity against Trypanosoma brucei rhodesiense infected in mouse assessed as cure rate at 40 mg/kg, ip administered on day 1 to 3 relative to control. The class given is functional. The conditions noted are these: route intraperitoneal.
In data set [3] the test system is Trypanosoma brucei rhodesiense. The experiment in a line: Antitrypanosomal activity against Trypanosoma brucei rhodesiense infected in mouse assessed as mean survival days at 50 mg/kg, ip administered on day 3 to 6 (reference value: 6 to 10 days). Type of data set: functional. To be noted: route intraperitoneal.
The subject of data set [4] is Trypanosoma brucei rhodesiense. Nature of the data set: Antitrypanosomal activity against Trypanosoma brucei rhodesiense infected in mouse assessed as survival more than 60 days without parasitemia relapse at 50 mg/kg, ip administered on day 3 to 6. Type of data set: functional, organism-based. Also on record: dose 50 mg/kg.

For 16 compounds, IC50, Activity and MSD results are on record in ChEMBL document CHEMBL3112401, “Activity of diimidazoline amides against African trypanosomiasis” (Bioorg Med Chem Lett, 2014).

Structures are written as SMILES. Calls of active or inactive are those of the source. The calls are words filed in the database; no cut-off is given here.

As a reminder, the IC50 is the concentration at which inhibition is half-maximal. `O=C(NCc1ccc(C2=NCCN2)cc1)c1ccc(C(=O)NCc2ccc(C3=NCCN3)cc2)cc1`: the results for the IC50 (in data set [1]; with L6) were 9.5 µM and 92 µM, respectively.

For `O=C(N[C@H]1CC[C@H](NC(=O)c2ccc(C3=NCCN3)cc2)CC1)c1ccc(C2=NCCN2)cc1`, the results for the IC50 (in data set [1]; with L6) were 0.69 µM and 130 µM, respectively.

In the case of `CS(=O)(=O)O.O=C(Nc1ccc(NC(=O)c2ccc(C3=NCCN3)cc2)cc1)c1ccc(C2=NCCN2)cc1`, the results for the IC50 (in data set [1]; with L6) were 0.12 µM and 92 µM, respectively. Moreover, the Activity entry was “Non-toxic” in the data set on Mus musculus and 100% in data set [2]. Besides, the MSD in data set [3] is over 60 days. For the same compound, the outcome in data set [4] was Active.

Consider `O=C(Nc1ccc(C2=NCCN2)cc1)c1ccc(-c2cc3ccc(C4=NCCN4)cc3[nH]2)cc1`, for which the figures for the IC50 (in data set [1]; in the data set with L6) were 0.0022 µM and 19 µM, respectively. For the same compound, the Activity in data set [2] was determined as 100%.

On to `CS(=O)(=O)O.O=C(Nc1ccc(C2=NCCN2)cc1)c1cccc(C(=O)Nc2ccc(C3=NCCN3)cc2)c1`, for which the figures for the IC50 (in data set [1]; in the data set with L6) were 0.051 µM and 120 µM, respectively. Also, the Activity in data set [2] was found to be 100%. Also, the MSD in data set [3] is over 60 days. Also, in data set [4], the result was Active.

As to `N=C(N)c1ccc(OCCCCCOc2ccc(C(=N)N)cc2)cc1` [PENTAMIDINE ISETHIONATE], the values for the IC50 (in data set [1]; in the data set with L6) were 0.0015 µM and 5.1 µM, respectively.

Take `CS(=O)(=O)O.O=C(NCc1ccc(C2=NCCN2)cc1)c1ccc(-c2cc3ccc(C4=NCCN4)cc3[nH]2)cc1`: the IC50 in data set [1] was found to be 0.0015 µM; with L6 it was 41 µM. Also, the Activity entry in the data set with Mus musculus is “Toxic”; in data set [2], 100%. Besides, in data set [4], the result was inactive.

As for `CS(=O)(=O)O.O=C(Nc1ccc(C2=NCCN2)cc1)c1ccc(C2=NCCN2)cc1`, the IC50 in data set [1] came to 0.086 µM; in the data set on L6, 68 µM. For the same compound, the Activity result in the data set with Mus musculus is reported as “Non-toxic”; in data set [2], 100%. The MSD in data set [3] amounted to 34 days.

Turning to `O=C(NCc1ccncc1)c1ccc(-c2cc3ccc(C4=NCCN4)cc3[nH]2)cc1`, the IC50 is 0.023 µM in data set [1] and 89 µM with L6. Besides, the Activity in data set [2] worked out at 100%.

In the case of `Nc1nc(N)nc(Nc2ccc([As]3SCC(CO)S3)cc2)n1` (stereo unspecified) [MELARSOPROL], the IC50 in data set [1] amounted to 0.0038 µM; in the data set with L6, 19 µM.

As to `CS(=O)(=O)O.O=C(Nc1ccc(C2=NCCN2)cc1)c1ccc(C(=O)Nc2ccc(C3=NCCN3)cc2)cc1`, the results for the IC50 (in data set [1]; with L6) were 0.0047 µM and 110 µM, respectively. The Activity in data set [2] is listed as 100%. Besides, the MSD in data set [3] came to 39 days.

With `CS(=O)(=O)O.O=C(Nc1ccc(C2=NCCN2)cc1)c1ccc(-c2ccc(C(=O)Nc3ccc(C4=NCCN4)cc3)cc2)cc1`, the values for the IC50 (in data set [1]; with L6) were 0.019 µM and over 150 µM, respectively. The Activity entry with Mus musculus is recorded as “Non-toxic”; in data set [2], 100%. Moreover, in data set [3], the MSD came out at 11 days. Further, in data set [4], the result was inactive.

For `O=C(NCc1ccc(C2=NCCN2)cc1)c1cccc(C(=O)NCc2ccc(C3=NCCN3)cc2)c1`, the IC50 in data set [1] is 64 µM; with L6, over 150 µM.

For `CS(=O)(=O)O.O=C(Nc1ccc(C2=NCCN2)cc1)c1ccc(NC(=O)c2ccc(C3=NCCN3)cc2)cc1`, the IC50 was 0.011 µM in data set [1] and 50 µM in the data set with L6. In addition, the Activity entry in the data set on Mus musculus is reported as “Non-toxic”; in data set [2] it was 100%. Besides, the MSD in data set [3] was over 60 days. Further, in data set [4], the outcome was Active.

Consider `O=C(NCc1ccccc1)c1ccc(-c2cc3ccc(C4=NCCN4)cc3[nH]2)cc1`, for which the figures for the IC50 (in data set [1]; in the data set on L6) were 2.2 µM and 110 µM, respectively.

Take `CS(=O)(=O)O.O=C(Nc1cccc(C(=O)Nc2ccc(C3=NCCN3)cc2)c1)c1ccc(C2=NCCN2)cc1`: the concentration for half-maximal inhibition (IC50) amounted to 0.12 µM in data set [1] and 99 µM in the data set on L6. The values for the Activity result (in the data set with Mus musculus; in data set [2]) were “Non-toxic” and 100%, respectively. Further, the MSD in data set [3] was over 60 days. Moreover, the outcome in data set [4] was Active.
